Consider 30 molecules from patent US11673901B2, “Polycyclic compounds as allosteric SHP2 inhibitors” (Revolution Medicines, Inc., priority 2017, dated 2023).

Bounds are passed on as bounds.

Sequence of SHP2 (Q06124 whole entry): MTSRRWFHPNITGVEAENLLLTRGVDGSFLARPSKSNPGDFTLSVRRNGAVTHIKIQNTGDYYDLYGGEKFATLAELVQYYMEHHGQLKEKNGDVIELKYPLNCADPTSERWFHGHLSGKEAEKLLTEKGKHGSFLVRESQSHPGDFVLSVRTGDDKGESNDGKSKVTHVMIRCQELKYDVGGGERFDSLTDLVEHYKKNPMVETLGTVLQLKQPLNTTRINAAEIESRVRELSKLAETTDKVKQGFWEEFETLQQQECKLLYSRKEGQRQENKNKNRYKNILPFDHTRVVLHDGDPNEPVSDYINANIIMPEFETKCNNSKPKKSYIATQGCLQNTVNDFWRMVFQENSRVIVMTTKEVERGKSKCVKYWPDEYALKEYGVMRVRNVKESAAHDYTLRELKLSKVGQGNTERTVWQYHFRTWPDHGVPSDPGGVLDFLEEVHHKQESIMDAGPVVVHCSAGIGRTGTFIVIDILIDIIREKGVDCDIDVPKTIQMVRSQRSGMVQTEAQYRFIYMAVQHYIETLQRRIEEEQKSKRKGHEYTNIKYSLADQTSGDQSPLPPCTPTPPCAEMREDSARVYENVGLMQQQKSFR

The target of the first test is SHP2 (Homo sapiens (Human), UniProt Q06124). The test is described as follows: SHP2 allosteric inhibition assay (DiFMUP prompt fluorescence). It counts as biochemical. The note with it: 0.2 nM SHP2 activated with 0.5 μM Activating Peptide 1 or 2; substrate DiFMUP; Table 1. The text has this:
Without wishing to be bound by theory, SHP2 is allosterically activated through binding of bis-tyrosyl-phosphorylated peptides to its Src Homology 2 (SH2) domains. The latter activation step leads to the release of the auto-inhibitory interface of SHP2, which in turn renders the SHP2 protein tyrosine phosphatase (PTP) active and available for substrate recognition and reaction catalysis. The catalytic activity of SHP2 was monitored using the surrogate substrate DiFMUP in a prompt fluorescence assay format.
The phosphatase reactions were performed at room temperature in 96-well black polystyrene plate, flat bottom, non-binding surface (Corning, Cat #3650) using a final reaction volume of 100 μL and the following assay buffer conditions: 50 mM HEPES, pH 7.2, 100 mM NaCl, 0.5 mM EDTA, 0.05% P-20, 1 mM DTT.
The inhibition of SHP2 by compounds of the invention (concentrations varying from 0.00005-10 μM) was monitored using an assay in which 0.2 nM of SHP2 was incubated with 0.5 μM of Activating Peptide 1 (sequence: H2N-LN(pY)IDLDLV(dPEG8)LST(pY)ASINFQK-amide) or Activating Peptide 2 (sequence: H2N-LN(pY)AQLWHA(dPEG8)LTI(pY)ATIRRF-amide). After 30-60-minutes incubation at 25° C., the surrogate substrate DiFMUP (Invitrogen, Cat #D6567) was added to the reaction and activity was determined by a kinetic read using a microplate reader (Envision, Perkin-Elmer or Spectramax M5, Molecular Devices). The excitation and emission wavelengths were 340 nm and 450 nm, respectively. Initial rates were determined from a linear fit of the data, and the inhibitor dose response curves were analyzed using normalized IC50 regression curve fitting with control based normalization.
The molecule `C[C@@H]1OCC2(CCN(c3ncc(Sc4ccnc(N)c4Cl)c4nccn34)CC2)[C@@H]1N` [Compound 1 (Example 1)] yielded an IC50 of 1 nM.

The molecule `CC1(N)CCN(c2ncc(Sc3ccnc(N)c3Cl)c3nccn23)CC1` [Compound 2 (Example 2)] registered an IC50 of 120 nM. This IC50 lies about 120-fold higher than the previous one.

The test is the same for the next values; noted with them: 0.2 nM SHP2 activated with 0.5 μM Activating Peptide 1 or 2; substrate DiFMUP; Table 2, class symbols.
Consider `C[C@@H]1OCC2(CCN(c3ncc(Sc4cccc(C(=O)N(C)C)c4Cl)c4nccn34)CC2)[C@@H]1N` [Compound 14, 3-({5-[(3S,4S)-4-amino-3-methyl-2-oxa-8-azaspiro[4.5]decan-8-yl]imidazo[1,2-c]pyrimidin-8-yl}sulfanyl)-2-chloro-N,N-dimethylbenzamide], for which the IC50 lay in the range of 50 to 500 nM. On to `Cc1nc(N2CCC3(CC2)CO[C@@H](C)[C@H]3N)n2ccnc2c1-c1cc(Cl)cc2cc[nH]c12` [Compound 52, (3S,4S)-8-[8-(5-chloro-1H-indol-7-yl)-7-methylimidazo[1,2-c]pyrimidin-5-yl]-3-methyl-2-oxa-8-azaspiro[4.5]decan-4-amine], for which the IC50 is at most 50 nM. Same read-out and setting: the value for `CC1(N)CCN(c2ncc(-c3cccc(Cl)c3Cl)c3nccn23)CC1` [Compound 3, 1-[8-(2,3-dichlorophenyl)imidazo[1,2-c]pyrimidin-5-yl]-4-methylpiperidin-4-amine] was over 500 nM. As to `Cc1nc(N2CCC3(CC2)CO[C@@H](C)[C@H]3N)n2ccnc2c1-c1ccc2ccnn2c1` [Compound 48, (3S,4S)-3-methyl-8-(7-methyl-8-pyrazolo[1,5-a]pyridin-6-yl-imidazo[1,2-c]pyrimidin-5-yl)-2-oxa-8-azaspiro[4.5]decan-4-amine], the IC50 was at most 50 nM. Turning to `COc1nccc(-c2c(C)nc(N3CCC4(CC3)CO[C@@H](C)[C@H]4N)n3ccnc23)c1Cl` [Compound 47, (3S,4S)-8-[8-(3-chloro-2-methoxypyridin-4-yl)-7-methylimidazo[1,2-c]pyrimidin-5-yl]-3-methyl-2-oxa-8-azaspiro[4.5]decan-4-amine], the IC50 is at most 50 nM. With `Nc1nccc(Sc2cnc(N[C@H]3CC[C@@H](O)C3)n3ccnc23)c1Cl` [Compound 80], the IC50 is over 500 nM. On to `Cc1nc(N2CCC3(CC2)CO[C@@H](C)[C@H]3N)n2ccnc2c1-c1ccc2[nH]ncc2c1` [Compound 39, (3S,4S)-8-[8-(2H-indazol-5-yl)-7-methylimidazo[1,2-c]pyrimidin-5-yl]-3-methyl-2-oxa-8-azaspiro[4.5]decan-4-amine], for which the IC50 was at most 50 nM.

`COc1c(C#N)ccc(-c2c(C)nc(N3CCC4(CC3)CO[C@@H](C)[C@H]4N)n3ccnc23)c1Cl` [Compound 46, 4-{5-[(3S,4S)-4-amino-3-methyl-2-oxa-8-azaspiro[4.5]decan-8-yl]-7-methylimidazo[1,2-c]pyrimidin-8-yl}-3-chloro-2-methoxybenzonitrile]: the IC50 was at most 50 nM. `N[C@@H]1CCCC12CCN(c1ccc(-c3cccc(Cl)c3Cl)c3cncn13)CC2` [Compound 5, (1R)-8-[8-(2,3-dichlorophenyl)imidazo[1,5-a]pyridin-5-yl]-8-azaspiro[4.5]decan-1-amine] registered an IC50 of over 500 nM.

`Cc1nc(N2CCC3(CC2)CO[C@@H](C)[C@H]3N)n2ccnc2c1-c1cccc2cn[nH]c12` [Compound 36, (3S,4S)-8-[8-(2H-indazol-7-yl)-7-methylimidazo[1,2-c]pyrimidin-5-yl]-3-methyl-2-oxa-8-azaspiro[4.5]decan-4-amine] gave an IC50 of at most 50 nM. In turn, `Nc1nccc(Sc2cnc(N3CC[C@@H](N)C3)n3ccnc23)c1Cl` [Compound 28, 4-({5-[(3R)-3-aminopyrrolidin-1-yl]imidazo[1,2-c]pyrimidin-8-yl}sulfanyl)-3-chloropyridin-2-amine] gave an IC50 of over 500 nM.

With `Nc1nccc(Sc2cnc(N3CC(O)C3)n3ccnc23)c1Cl` [Compound 75], the IC50 is over 500 nM. `C[C@@H]1OCC2(CCN(c3ncc(Sc4ccnc5nc[nH]c45)c4nccn34)CC2)[C@@H]1N` [Compound 17, (3S,4S)-8-(8-{1H-imidazo[4,5-b]pyridin-7-ylsulfanyl}imidazo[1,2-c]pyrimidin-5-yl)-3-methyl-2-oxa-8-azaspiro[4.5]decan-4-amine] had an IC50 of at most 50 nM. For `COc1cccc(-c2c(C)nc(N3CCC4(CC3)C[C@@H](OC3COC3)C[C@H]4N)n3ccnc23)c1Cl` [Compound 64, (2R,4R)-8-[8-(2-chloro-3-methoxy-phenyl)-7-methyl-imidazo[1,2-c]pyrimidin-5-yl]-2-(oxetan-3-yloxy)-8-azaspiro[4.5]decan-4-amine], the IC50 was at most 50 nM. `Cc1nc(N2CCC3(CC2)CO[C@@H](C)[C@H]3N)n2ccnc2c1-c1ccc(O)c(Cl)c1Cl` [Compound 54, 4-{5-[(3S,4S)-4-amino-3-methyl-2-oxa-8-azaspiro[4.5]decan-8-yl]-7-methylimidazo[1,2-c]pyrimidin-8-yl}-2,3-dichlorophenol] yielded an IC50 of at most 50 nM. In the case of `C[C@@H]1OCC2(CCN(c3ncc(Sc4ccnc(N5CC(O)C5)c4Cl)c4nccn34)CC2)[C@@H]1N` [Compound 10, 1-[4-({5-[(3S,4S)-4-amino-3-methyl-2-oxa-8-azaspiro[4.5]decan-8-yl]imidazo[1,2-c]pyrimidin-8-yl}sulfanyl)-3-chloropyridin-2-yl]azetidin-3-ol], the IC50 was at most 50 nM. Take `C[C@@H]1OCC2(CCN(c3ncc(Sc4ccnc(N)c4Cl)c4nccn34)CC2)[C@@H]1N` [Compound 1, (3S,4S)-8-{8-[(2-amino-3-chloropyridin-4-yl)sulfanyl]imidazo[1,2-c]pyrimidin-5-yl}-3-methyl-2-oxa-8-azaspiro[4.5]decan-4-amine]: the 50% inhibitory concentration (IC50) is at most 50 nM. Molecule `Cc1nc(N2CCC3(CC2)CO[C@@H](C)[C@H]3N)n2ccnc2c1-c1ccc2c(c1Cl)OCCC2` [Compound 43, (3S,4S)-8-[8-(8-chloro-3,4-dihydro-2H-1-benzopyran-7-yl)-7-methylimidazo[1,2-c]pyrimidin-5-yl]-3-methyl-2-oxa-8-azaspiro[4.5]decan-4-amine] registered an IC50 of at most 50 nM.

In turn, `NCCC1CN(c2ncc(Sc3ccnc(N)c3Cl)c3nccn23)C1` [Compound 22, 4-({5-[3-(2-aminoethyl)azetidin-1-yl]imidazo[1,2-c]pyrimidin-8-yl}sulfanyl)-3-chloropyridin-2-amine] showed an IC50 of over 500 nM. The molecule `COc1cccc(-c2c(C)nc(N3CCC4(CC3)CO[C@@H](C)[C@H]4N)n3ccnc23)c1Cl` [Compound 9, (3S,4S)-8-[8-(2-chloro-3-methoxyphenyl)-7-methylimidazo[1,2-c]pyrimidin-5-yl]-3-methyl-2-oxa-8-azaspiro[4.5]decan-4-amine] gave an IC50 of at most 50 nM.

On to `C[C@@H]1OCC2(CCN(c3cnc(Sc4ccnc(N)c4Cl)c4nccn34)CC2)[C@@H]1N` [Compound 65, (3S,4S)-8-{8-[(2-amino-3-chloropyridin-4-yl)sulfanyl]imidazo[1,2-a]pyrazin-5-yl}-3-methyl-2-oxa-8-azaspiro[4.5]decan-4-amine], for which the IC50 is over 500 nM. Molecule `C[C@@H]1OCC2(CCN(c3ncc(-c4cccc(Cl)c4Cl)c4nccn34)CC2)[C@@H]1N` [Compound 56, (3S,4S)-8-[8-(2,3-dichlorophenyl)imidazo[1,2-c]pyrimidin-5-yl]-3-methyl-2-oxa-8-azaspiro[4.5]decan-4-amine] yielded an IC50 of at most 50 nM. As for `C[C@H](O)CNc1ncc(Sc2ccnc(N)c2Cl)c2nccn12` [Compound 74], the IC50 was over 500 nM. For `Cc1nc(N2CCC3(CC2)CO[C@@H](C)[C@H]3N)n2ccnc2c1-c1cccc(Cl)c1Cl` [Compound 8, (3S,4S)-8-[8-(2,3-dichlorophenyl)-7-methylimidazo[1,2-c]pyrimidin-5-yl]-3-methyl-2-oxa-8-azaspiro[4.5]decan-4-amine], the IC50 is at most 50 nM. Still for that read-out and setting: under `C[C@@H]1OCC2(CCN(c3ncc(Sc4ccnc(N)c4)c4nccn34)CC2)[C@@H]1N` [Compound 16, (3S,4S)-8-{8-[(2-aminopyridin-4-yl)sulfanyl]imidazo[1,2-c]pyrimidin-5-yl}-3-methyl-2-oxa-8-azaspiro[4.5]decan-4-amine] stands 50 to 500 nM. Consider `Nc1nccc(Sc2cnc(N3C[C@@H]4[C@@H](N)[C@@H]4C3)n3ccnc23)c1Cl` [Compound 25, (1R,5S,6R)-3-{8-[(2-amino-3-chloropyridin-4-yl)sulfanyl]imidazo[1,2-c]pyrimidin-5-yl}-3-azabicyclo[3.1.0]hexan-6-amine], for which the IC50 lay within 50 to 500 nM.

Molecule `NC(=O)CNc1ncc(Sc2ccnc(N)c2Cl)c2nccn12` [Compound 66, 2-({8-[(2-amino-3-chloropyridin-4-yl)sulfanyl]imidazo[1,2-c]pyrimidin-5-yl}amino)acetamide] returned an IC50 of over 500 nM. Take `Cc1nc(N2CCC3(CC2)CO[C@@H](C)[C@H]3N)n2ccnc2c1-c1ccc2c(cnn2C)c1` [Compound 34, (3S,4S)-3-methyl-8-[7-methyl-8-(1-methyl-1H-indazol-5-yl)imidazo[1,2-c]pyrimidin-5-yl]-2-oxa-8-azaspiro[4.5]decan-4-amine]: the IC50 was at most 50 nM.
